Measurements taken from PubChem BioAssay AID2060893 (Molecular Pharmacology Branch, DTP, NCI, 2025).

System: K86415-001-R-J1-PDC complex spheroids, viability
Assay: Anticancer human tumor K86415-001-R-J1-PDC patient-derived lung adenocarcinoma cell line growth inhibition [RAS]
Details: for IC50: curve of first compound; for viability, T/C: stronger effect = lower value; active = viability on the fitted dose curve at most 10% of control; inactive = the rest
How it was run: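 Tumour cells grown as complex spheroids with HUVEC endothelial cells and mesenchymal stem cells, treated with RAS pathway inhibitor combinations. Each agent spans half-log steps from near clinical Cmax, or 10 microM where Cmax is unknown.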

[1] = second compound 0.000949 µM, first compound 0.0316 µM
[2] = second compound 0.000949 µM, first compound 0.1 µM
[3] = second compound 0.000949 µM, first compound 0.316 µM
[4] = second compound 0.000949 µM, first compound 1 µM
[5] = second compound 0.000949 µM, first compound 3.16 µM
[6] = second compound 0.000949 µM, first compound 10 µM
[7] = second compound 0.003 µM, first compound 0.0316 µM
[8] = second compound 0.003 µM, first compound 0.1 µM
[9] = second compound 0.003 µM, first compound 0.316 µM
[10] = second compound 0.003 µM, first compound 1 µM
[11] = second compound 0.003 µM, first compound 3.16 µM
[12] = second compound 0.003 µM, first compound 10 µM
[13] = second compound 0.00949 µM, first compound 0.0316 µM
[14] = second compound 0.00949 µM, first compound 0.1 µM
[15] = second compound 0.00949 µM, first compound 0.316 µM
[16] = second compound 0.00949 µM, first compound 1 µM
[17] = second compound 0.00949 µM, first compound 3.16 µM
[18] = second compound 0.00949 µM, first compound 10 µM
[19] = second compound 0.03 µM, first compound 0.0316 µM
[20] = second compound 0.03 µM, first compound 0.1 µM
[21] = second compound 0.03 µM, first compound 0.316 µM
[22] = second compound 0.03 µM, first compound 1 µM
[23] = second compound 0.03 µM, first compound 3.16 µM
[24] = second compound 0.03 µM, first compound 10 µM
[25] = second compound 0.0949 µM, first compound 0.0316 µM
[26] = second compound 0.0949 µM, first compound 0.1 µM
[27] = second compound 0.0949 µM, first compound 0.316 µM
[28] = second compound 0.0949 µM, first compound 1 µM
[29] = second compound 0.0949 µM, first compound 3.16 µM
[30] = second compound 0.0949 µM, first compound 10 µM
[31] = second compound 0.3 µM, first compound 0.0316 µM
[32] = second compound 0.3 µM, first compound 0.1 µM
[33] = second compound 0.3 µM, first compound 0.316 µM
[34] = second compound 0.3 µM, first compound 1 µM
[35] = second compound 0.3 µM, first compound 3.16 µM
[36] = second compound 0.3 µM, first compound 10 µM
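Also: spheroids exposed to agents for seven days before readout.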

CC(C)NCC(C(=O)N1CCN(c2ncnc3c2C(C)CC3O)CC1)c1ccc(Cl)cc1 (stereo not drawn) + CCn1c(-c2cccnc2C(C)OC)c2c3cc(ccc31)N1CCOC(CC(NC(=O)C(C(C)C)N(C)C(=O)C3(F)CCN(C(=O)C#CC(C)(C)N(C)C)CC3)C(=O)N3CCCC(N3)C(=O)OCC(C)(C)C2)C1
< 31.6 nM: IC50 (second compound 0.000949 µM) | IC50 (second compound 0.003 µM) | IC50 (second compound 0.00949 µM) | IC50 (second compound 0.03 µM) | IC50 (second compound 0.0949 µM) | IC50 (second compound 0.3 µM)
inactive: viability, T/C [1] 35.7% | viability, T/C [2] 32.2% | viability, T/C [3] 17.5% | viability, T/C [4] 23.3% | viability, T/C [5] 27.7% | viability, T/C [7] 13.4% | viability, T/C [8] 10.9% | viability, T/C [13] 12.8% | viability, T/C [14] 9.52% | viability, T/C [19] 12.9% | viability, T/C [20] 10.5% | viability, T/C [25] 9.52% | viability, T/C [31] 12.9% | viability, T/C [32] 12%
active: viability, T/C [6] 2.82% | viability, T/C [9] 8.95% | viability, T/C [10] 8.63% | viability, T/C [11] 7.76% | viability, T/C [12] 2.54% | viability, T/C [15] 9.15% | viability, T/C [16] 9.63% | viability, T/C [17] 4.93% | viability, T/C [18] 3.21% | viability, T/C [21] 10.2% | viability, T/C [22] 8.95% | viability, T/C [23] 4.3% | viability, T/C [24] 3.21% | viability, T/C [26] 9.03% | viability, T/C [27] 9.7% | viability, T/C [28] 10% | viability, T/C [29] 4.97% | viability, T/C [30] 2.94% | viability, T/C [33] 10.3% | viability, T/C [34] 6.44% | viability, T/C [35] 4.71% | viability, T/C [36] 2.26%

CC(C)n1nc(-c2ccc3oc(N)nc3c2)c2c(N)ncnc21 + CCn1c(-c2cccnc2C(C)OC)c2c3cc(ccc31)N1CCOC(CC(NC(=O)C(C(C)C)N(C)C(=O)C3(F)CCN(C(=O)C#CC(C)(C)N(C)C)CC3)C(=O)N3CCCC(N3)C(=O)OCC(C)(C)C2)C1
inactive: viability, T/C (second compound 0.000949 µM, first compound 0.000316 µM) 34% | viability, T/C (second compound 0.000949 µM, first compound 0.001 µM) 35.4% | viability, T/C (second compound 0.000949 µM, first compound 0.00316 µM) 23.2% | viability, T/C (second compound 0.000949 µM, first compound 0.01 µM) 41.4% | viability, T/C [1] 24.4% | viability, T/C [2] 5.51% | viability, T/C (second compound 0.003 µM, first compound 0.000316 µM) 13% | viability, T/C (second compound 0.003 µM, first compound 0.001 µM) 12.1% | viability, T/C (second compound 0.003 µM, first compound 0.00316 µM) 10.7% | viability, T/C (second compound 0.00949 µM, first compound 0.000316 µM) 13.2% | viability, T/C (second compound 0.00949 µM, first compound 0.001 µM) 9.19% | viability, T/C (second compound 0.00949 µM, first compound 0.00316 µM) 10.9% | viability, T/C (second compound 0.03 µM, first compound 0.000316 µM) 12.8% | viability, T/C (second compound 0.03 µM, first compound 0.001 µM) 10.7% | viability, T/C (second compound 0.03 µM, first compound 0.00316 µM) 11.1% | viability, T/C (second compound 0.0949 µM, first compound 0.000316 µM) 10.1% | viability, T/C (second compound 0.0949 µM, first compound 0.001 µM) 11% | viability, T/C (second compound 0.3 µM, first compound 0.000316 µM) 14.4% | viability, T/C (second compound 0.3 µM, first compound 0.001 µM) 11.3%
< 0.316 nM: IC50 (second compound 0.000949 µM) | IC50 (second compound 0.003 µM) | IC50 (second compound 0.00949 µM) | IC50 (second compound 0.03 µM) | IC50 (second compound 0.0949 µM) | IC50 (second compound 0.3 µM)
active: viability, T/C (second compound 0.003 µM, first compound 0.01 µM) 14.7% | viability, T/C [7] 8.1% | viability, T/C [8] 3.6% | viability, T/C (second compound 0.00949 µM, first compound 0.01 µM) 13.8% | viability, T/C [13] 7.68% | viability, T/C [14] 2.81% | viability, T/C (second compound 0.03 µM, first compound 0.01 µM) 12.4% | viability, T/C [19] 5.85% | viability, T/C [20] 3.42% | viability, T/C (second compound 0.0949 µM, first compound 0.00316 µM) 10.1% | viability, T/C (second compound 0.0949 µM, first compound 0.01 µM) 12.7% | viability, T/C [25] 4.18% | viability, T/C [26] 2.27% | viability, T/C (second compound 0.3 µM, first compound 0.00316 µM) 12.1% | viability, T/C (second compound 0.3 µM, first compound 0.01 µM) 7.79% | viability, T/C [31] 4.23% | viability, T/C [32] 2.06%

CC(Nc1ccc2c(c1)OCCn1cc(N3C(=O)OCC3C(F)F)nc1-2)C(N)=O (stereo not drawn) + CCn1c(-c2cccnc2C(C)OC)c2c3cc(ccc31)N1CCOC(CC(NC(=O)C(C(C)C)N(C)C(=O)C3(F)CCN(C(=O)C#CC(C)(C)N(C)C)CC3)C(=O)N3CCCC(N3)C(=O)OCC(C)(C)C2)C1
< 31.6 nM: IC50 (second compound 0.000949 µM) | IC50 (second compound 0.003 µM) | IC50 (second compound 0.00949 µM) | IC50 (second compound 0.03 µM) | IC50 (second compound 0.0949 µM) | IC50 (second compound 0.3 µM)
inactive: viability, T/C [1] 26.6% | viability, T/C [2] 24.9% | viability, T/C [3] 14.1% | viability, T/C [4] 24.3% | viability, T/C [7] 11.9% | viability, T/C [13] 9.31% | viability, T/C [25] 10.4%
active: viability, T/C [5] 8.98% | viability, T/C [6] 1.64% | viability, T/C [8] 8% | viability, T/C [9] 6.61% | viability, T/C [10] 4.14% | viability, T/C [11] 2.69% | viability, T/C [12] 0.95% | viability, T/C [14] 8.26% | viability, T/C [15] 6.9% | viability, T/C [16] 3.65% | viability, T/C [17] 1.68% | viability, T/C [18] 1.1% | viability, T/C [19] 8.58% | viability, T/C [20] 7.61% | viability, T/C [21] 6.15% | viability, T/C [22] 2.63% | viability, T/C [23] 1.91% | viability, T/C [24] 1.86% | viability, T/C [26] 8.62% | viability, T/C [27] 4.05% | viability, T/C [28] 3.24% | viability, T/C [29] 1.57% | viability, T/C [30] 1.22% | viability, T/C [31] 8.96% | viability, T/C [32] 6.86% | viability, T/C [33] 3.94% | viability, T/C [34] 2.09% | viability, T/C [35] 1.58% | viability, T/C [36] 1.59%

C[C@@H](NC(=O)c1ncnc(N)c1Cl)c1ncc(C(=O)Nc2cc(C(F)(F)F)c(Cl)cn2)s1 + CCn1c(-c2cccnc2C(C)OC)c2c3cc(ccc31)N1CCOC(CC(NC(=O)C(C(C)C)N(C)C(=O)C3(F)CCN(C(=O)C#CC(C)(C)N(C)C)CC3)C(=O)N3CCCC(N3)C(=O)OCC(C)(C)C2)C1
< 31.6 nM: IC50 (second compound 0.000949 µM) | IC50 (second compound 0.003 µM) | IC50 (second compound 0.00949 µM) | IC50 (second compound 0.03 µM) | IC50 (second compound 0.0949 µM) | IC50 (second compound 0.3 µM)
inactive: viability, T/C [1] 44.6% | viability, T/C [2] 55.7% | viability, T/C [3] 35.6% | viability, T/C [4] 56.4% | viability, T/C [5] 45.2% | viability, T/C [6] 21.5% | viability, T/C [7] 18.7% | viability, T/C [8] 15.2% | viability, T/C [9] 16.7% | viability, T/C [10] 16.3% | viability, T/C [11] 16.3% | viability, T/C [12] 12.6% | viability, T/C [13] 14.2% | viability, T/C [14] 14% | viability, T/C [15] 13.8% | viability, T/C [16] 14.1% | viability, T/C [17] 12.6% | viability, T/C [18] 13.3% | viability, T/C [19] 14.6% | viability, T/C [20] 14.2% | viability, T/C [21] 17% | viability, T/C [22] 16.4% | viability, T/C [23] 13.6% | viability, T/C [24] 12.3% | viability, T/C [25] 12.1% | viability, T/C [26] 14.3% | viability, T/C [27] 12.7% | viability, T/C [28] 14.5% | viability, T/C [29] 13.6% | viability, T/C [30] 13.8% | viability, T/C [31] 12% | viability, T/C [32] 13.5% | viability, T/C [33] 14.9% | viability, T/C [34] 15.3% | viability, T/C [35] 13.8% | viability, T/C [36] 13.1%
